Results reported in patent publication US20220233556A1, “COMPOSITIONS AND METHODS FOR TREATING OPHTHALMIC CONDITIONS” (Medicon Pharmaceuticals, Inc., priority 2017, published 2022).

Legend:
Staphylococcus aureus = assay: Disk diffusion method, antibiotic disks impregnated with PS; format: cell-based; conditions: PS 1-9% vs 0% PS
Description: It was assessed whether the combination of PS with antibiotics for their topical application to the eye affects the antimicrobial activity of the antibiotics. To this end, the disk diffusion method was used.
Briefly, Staphylococcus aureus grown in culture was seeded evenly on Muller-Hinton II Agar plates (BD Diagnostic Systems) at the standard concentration of 2×10^8 colony-forming units per mL. Antibiotic antimicrobial susceptibility disks (Thermo Scientific Oxoid™) were impregnated with one of six concentrations of PS (0%, 1%, 2%, 3%, 6%, 9%); 10 μL of each was evenly dispensed on each disk. An additional control was disks with no PS and no vehicle. The growth of bacteria around each disk was monitored and the area of “no growth” around each disk was measured 24 h later.

[1] = Rabbit ocular PK study of PS emulsion (2% PS); format: in vivo, New Zealand rabbits; conditions: 2% PS emulsion
Description: A formulation includes 2% PS; 5% Propylene glycol, 10% Mineral oil, 4% Tween 60, 4% Tween 80, 10% (2-hydroxypropyl)-β-cyclodextrin (HP-β-CD). Preparation method (2 mL scale): Oil phase: weight PS into glass vial, add propylene glycol, stir at 50° C. to obtain a clear solution. Then add mineral oil, stir to obtain a clear solution. Water phase: Dissolve HP-β-CD, […] and Tween 80 into water. Add water phase into oil phase, probe-sonicate for 5 sec, 8 times, with 5 sec intervals. Resultant emulsion is filtrated through 0.22 μm filter.
Rabbit ocular pharmacokinetic (PK) study: PS was administered to New Zealand rabbits topically to the eye; as three 25 μL eye drops, 5 min apart. Rabbits were euthanized at eight specified time points between 0.25 to 16 h, ocular tissues were dissected and PS was extracted with acetonitrile and its tissue levels as well as those of its metabolites were determined by HPLC as described (Xie G. et al., Br J Pharmacol 165:2′52-2166; 2012).

corneal sensitivity = assay: Corneal touch threshold (CTT) assay, Cochet-Bonnet aesthesiometer; format: in vivo, rabbits
Description: FIGS. 10A and 10B illustrate the ocular analgesic effect of PS. FIG. 10A: One drop of PS 0.5%, vehicle, or lidocaine was applied to one eye of rabbits (n=4/group) and the corneal touch threshold (CTT) was determined using an Eshesiometer. Vehicle had no effect on CTT (not shown; overlaps with the 0 value horizontal line). Values=mean±SEM. FIG. 10B: PS 0.5% in formulations differing in pH as indicated produced different analgesic responses in rabbits. The areas under each curve (AUC), indicted in the figure, that quantify these responses vary by as much as >5 fold. Values are the average of 2; all were within 11% of each other.
FIGS. 11A and 11B illustrates the effect of various concentrations of PS on corneal sensitivity determined by the corneal touch threshold (CTT) assay. The CTT score is expressed as length of filament. Measurements were performed at the indicated time points after a single application of PS as an eye drop. Rabbits with normal or dry eyes were studied (n=6 eyes per group). Dry eyes were induced by Concanavalin A injection as described in the text. The % PS content in each study is shown. The numbers in parentheses indicate the corresponding value of the area under the curve. Values=mean±SEM.
FIGS. 12A and 12B illustrate the effect of various drugs on corneal sensitivity determined by the corneal touch threshold (CTT) assay described herein. Each drug was used in its commercially available form; one eye drop of each was applied. The numbers in parentheses indicate the corresponding value of the area under the curve. Values=mean±SEM.
The analgesic effect of PS was examined on the surface of the eye by determining the corneal touch threshold (CTT) using the Luneau Cochet-Bonnet Aesthesiometer (Western Ophthalmics, Lynwood, Wash.) an adjustable nylon monofilament with a defined diameter, which is applied in different lengths to the center of the cornea.
In this embodiment, the composition of the PS preparation was: 0.5% PS, 18% (2-hydroxypropyl)-β-cyclodextrin (HP-β-CD), 1-4% Tween 80. Preparation Method: HP-β-CD was dissolved in purified water maintained in a 50° C. water bath. PS was added into this solution and kept at 50° C. overnight with stirring at 500 rpm until PS was fully dissolved. Tween 80 was added into the PS HP-β-CD solution, which was then centrifuged at 3000 rpm for 10 min to remove undissolved particles. The supernatant was collected and pH was adjusted to the desired value using a NaOH solution. The analgesic effect of PS was examined as above.
The effect of PS and other compounds on corneal sensitivity was determined in rabbits with normal or dry eyes using the CTT assay as above; DED was induced by Concanavalin A as previously described. The CTT score, expressed as filament length in mm, of normal eyes was 5.56±0.11 mm (mean±SEM for this and subsequent values) and in dry eyes 4.17±0.12 mm; the difference between the two is statistically significant (p<0.0001).

[2] = three 25 μL eye drops, PS and its metabolites

CCOP(=O)(OCC)OCCCCOC(=O)CC1=C(C)/C(=C/c2ccc([S+](C)[O-])cc2)c2ccc(F)cc21 (stereo not drawn) [PS, phosphosulindac]
effect of PS on the inhibition zone of each antibiotic (Staphylococcus aureus): did not appreciably change
PS in the retina ([1]; eye drops): no PS was detected
Cmax, aqueous humor [1, 2]: 0.9 μm
Cmax, conjunctiva [1, 2]: 33.6 μm
Cmax, cornea [1, 2]: 85.4 μm
AUC(0-t) ([1]; New Zealand, rabbit, iris and ciliary body, topical or ocular, eye drops, read-out: AUC0-16 h in the iris and ciliary body): < 4 µM·h
effect on corneal sensitivity (CTT), dry eyes (corneal sensitivity; 0.05% PS): ineffective
effect on corneal sensitivity (CTT), dry eyes (corneal sensitivity; 0.2% and 1.6% PS): essentially equipotent
effect on corneal sensitivity (CTT), dry eyes (corneal sensitivity; Con A-induced dry eyes, single eye drop): restored the already suppressed ocular sensitivity
variation of AUC of analgesic response between formulations differing in pH (corneal sensitivity; PS 0.5%, HP-β-CD formulation): > 5 fold
duration of response of corneal sensation (corneal sensitivity; dry eye): less than 100 min
onset of response of corneal sensation (corneal sensitivity; dry eye): ≤ 5 min
time at which values returned to baseline (corneal sensitivity; dry eyes): 100 min
analgesic effect (CTT) (corneal sensitivity; naïve rabbits, single eye drop, PS 0.5%): essentially instantaneous and significant analgesia
effect on corneal sensitivity (CTT), normal eyes (corneal sensitivity; single eye drop, various PS concentrations): dose-dependent analgesic effect
